Activity calls are given as the source filed them. The rule behind the calls is not given here.
Tests used:
SW-620 = experiment: Antiproliferative activity against human SW-620 cells assessed as inhibition of cell growth incubated for 72 hrs by SRB assay; assay type: functional, cell-based; settings: SW-620, 72 h
HepG2 = experiment: Antiproliferative activity against human HepG2 cells assessed as inhibition of cell growth incubated for 72 hrs by SRB assay; assay type: functional, cell-based; settings: HepG2, 72 h
H69AR [1] = experiment: Antiproliferative activity against human NCI-H69AR cells assessed as inhibition of cell growth incubated for 72 hrs by SRB assay; assay type: functional, cell-based
SH-SY5Y = experiment: Antiproliferative activity against human SH-SY5Y cells assessed as inhibition of cell growth incubated for 72 hrs by SRB assay; assay type: functional, cell-based
MCF7 = experiment: Antiproliferative activity against human MCF7 cells assessed as inhibition of cell growth incubated for 72 hrs by SRB assay; assay type: functional, cell-based; settings: MCF7, 72 h
U-87 MG = experiment: Antiproliferative activity against human U87 cells assessed as inhibition of cell growth incubated for 72 hrs by SRB assay; assay type: functional, cell-based, U-87MG ATCC
NCI-H446 [2] = experiment: Induction of apoptosis in human NCI-H446 cells assessed as late apoptotic cells at 1 nM incubated for 24 hrs by AnnexinV-FITC/PI staining based flow cytometry analysis (reference value: 0.37 %); assay type: functional
NCI-H446 [3] = experiment: Induction of apoptosis in human NCI-H446 cells assessed as early apoptotic cells at 10 nM incubated for 24 hrs by AnnexinV-FITC/PI staining based flow cytometry analysis (reference value: 3.1 %); assay type: functional
NCI-H446 [4] = experiment: Induction of apoptosis in human NCI-H446 cells assessed as late apoptotic cells at 10 nM incubated for 24 hrs by AnnexinV-FITC/PI staining based flow cytometry analysis (reference value: 0.37 %); assay type: functional
H69AR [5] = experiment: Induction of apoptosis in human NCI-H69AR cells assessed as early apoptotic cells at 1 nM incubated for 24 hrs by AnnexinV-FITC/PI staining based flow cytometry analysis (reference value: 0.35 %); assay type: functional
H69AR [6] = experiment: Induction of apoptosis in human NCI-H69AR cells assessed as dead cells at 1 nM incubated for 24 hrs by AnnexinV-FITC/PI staining based flow cytometry analysis (reference value: 1.92 %); assay type: functional
H69AR [7] = experiment: Induction of apoptosis in human NCI-H69AR cells assessed as early apoptotic cells at 10 nM incubated for 24 hrs by AnnexinV-FITC/PI staining based flow cytometry analysis (reference value: 0.35 %); assay type: functional
H69AR [8] = experiment: Induction of apoptosis in human NCI-H69AR cells assessed as dead cells at 10 nM incubated for 24 hrs by AnnexinV-FITC/PI staining based flow cytometry analysis (reference value: 1.92 %); assay type: functional
H69AR [9] = experiment: Induction of apoptosis in human NCI-H69AR cells assessed as late apoptotic cells at 100 nM incubated for 24 hrs by AnnexinV-FITC/PI staining based flow cytometry analysis (reference value: 2.99 %); assay type: functional
H69AR [10] = experiment: Induction of apoptosis in human NCI-H69AR cells assessed as dead cells at 100 nM incubated for 24 hrs by AnnexinV-FITC/PI staining based flow cytometry analysis (reference value: 1.92 %); assay type: functional
NCI-H446 [11] = experiment: Induction of apoptosis in human NCI-H446 cells assessed as increase in cleaved-PARP protein expression at 0.1 to 100 nM measured after 24 to 48 hrs by Western blot analysis; assay type: functional, cell-based; settings: dose 0.1-100 nM, time 24-48 hrs
NCI-H446 [12] = experiment: Induction of apoptosis in human NCI-H446 cells assessed as increase in cleaved-caspase 9 protein expression at 0.1 to 100 nM measured after 24 to 48 hrs by Western blot analysis; assay type: functional, cell-based; settings: dose 0.1-100 nM, time 24-48 hrs
NCI-H446 [13] = experiment: Induction of apoptosis in human NCI-H446 cells assessed as inhibition of Mcl-1 protein expression incubated for 24 hrs by Western blot analysis; assay type: functional, cell-based; settings: dose 0.1-100 nM
NCI-H446 [14] = experiment: Induction of apoptosis in human NCI-H446 cells assessed as downregulation of survivin protein expression at 0.1 to 100 nM measured for 48 hrs by Western blot analysis; assay type: functional, cell-based; settings: dose 0.1-100 nM
NCI-H446 [15] = experiment: Induction of apoptosis in human NCI-H446 cells assessed as reduction in Bcl-2 mRNA level at 0.1 to 100 nM incubated for 24 hrs by RT-PCR analysis; assay type: functional, cell-based; settings: dose 0.1-100 nM
NCI-H69 [16] = experiment: Induction of apoptosis in human NCI-H69 cells assessed as inhibition of XIAP protein expression at 0.1 to 100 nM incubated for 24 hrs by Western blot analysis; assay type: functional, cell-based; settings: dose 0.1-100 nM
NCI-H69 [17] = experiment: Induction of apoptosis in human NCI-H69 cells assessed as inhibition of survivin protein expression at 0.1 to 100 nM incubated for 24 hrs by Western blot analysis; assay type: functional, cell-based; settings: dose 0.1-100 nM
H69AR [18] = experiment: Induction of apoptosis in human NCI-H69AR cells assessed as inhibition of Mcl-1 protein expression at 0.1 to 100 nM incubated for 24 hrs by Western blot analysis; assay type: functional, cell-based; settings: dose 0.1-100 nM
H69AR [19] = experiment: Induction of apoptosis in human NCI-H69AR cells assessed as inhibition of Bcl-2 protein expression at 0.1 to 100 nM incubated for 24 hrs by Western blot analysis; assay type: functional, cell-based; settings: dose 0.1-100 nM
NCI-H69 [20] = experiment: Induction of apoptosis in human NCI-H69 cells assessed as reduction in XIAP mRNA expression at 0.1 to 100 nM incubated for 24 hrs by RT-PCR analysis; assay type: functional, cell-based; settings: dose 0.1-100 nM
H69AR [21] = experiment: Induction of apoptosis in human NCI-H69AR cells assessed as reduction in Bcl-2 mRNA expression at 0.1 to 100 nM incubated for 24 hrs by RT-PCR analysis; assay type: functional, cell-based; settings: dose 0.1-100 nM
NCI-H446 [22] = experiment: Antitumor activity against human NCI-H446 cells xenografted in BALB/c nude mouse assessed as tumor growth inhibition at 1.5 mg/kg, IG administered once a week for 28 days by electronic caliper method relative to control; assay type: functional; settings: NCI-H446, po, 672 h, time 28 day, read-out: TGI
Mus musculus = experiment: Downregulation of Mcl-1 protein expression in tumor of BALB/c mouse xenografted with human NCI-H446 cells at 0.75 mg/kg, IG administered intragastrically once a week for 28 days by western blot analysis; assay type: functional, organism-based; settings: time 28.0 day
NCI-H446 [23] = experiment: Antiproliferative activity against Irinotecan-resistant human NCI-H446 cells assessed as inhibition of cell growth incubated for 72 hrs by SRB assay; assay type: functional, cell-based; settings: NCI-H446, 72 h
NCI-H446 [24] = experiment: Antiproliferative activity against etoposide/cisplatin combination-resistant human NCI-H446 cells assessed as inhibition of cell growth incubated for 72 hrs by SRB assay; assay type: functional, cell-based; settings: NCI-H446, 72 h
[25] = Resistance index, ratio of IC50 for antiproliferative activity against etoposide/cisplatin combination-resistant human NCI-H446 cells to IC50 for antiproliferative activity against human NCI-H446 cells; assay type: functional
NCI-H446 [26] = experiment: Antitumor activity against Irinotecan-resistant human NCI-H446 cells xenografted in BALB/c nude mouse assessed as tumor weight at 3 mg/kg, IG administered once a week and measured 3 times a week for 35 days; assay type: functional; settings: time 35 day
NCI-H446 [27] = experiment: Antitumor activity against etoposide/cisplatin combination-resistant human NCI-H446 cells xenografted in BALB/c nude mouse assessed as tumor growth inhibition at 3 mg/kg, IG administered once a week and measured 3 times a week relative to control; assay type: functional; settings: NCI-H446, po, read-out: TGI

Structure (SMILES): CC[C@@]1(O)C(=O)OCc2c1cc1n(c2=O)Cc2c-1nc1cc3c(cc1c2-c1ccoc1)OCO3
- IC50 (SW-620): 0.11 nM
- IC50 (HepG2): 1.42 nM
- IC50 (H69AR [1]): 5.57 nM
- IC50 (SH-SY5Y): 7.91 nM
- IC50 (MCF7): 9.49 nM
- IC50 (U-87 MG): 19.1 nM
- Activity (NCI-H446 [2]): 9.6%
- Activity (NCI-H446 [3]): 15.81%
- Activity (NCI-H446 [4]): 6.25%
- Activity (H69AR [5]): 0.62%
- Activity (H69AR [6]): 2.61%
- Activity (H69AR [7]): 0.57%
- Activity (H69AR [8]): 1.82%
- Activity (H69AR [9]): 32.38%
- Activity (H69AR [10]): 1.47%
- Activity (NCI-H446 [11]): Active
- Activity (NCI-H446 [12]): Active
- inhibition (NCI-H446 [13]): Active
- Activity (NCI-H446 [14]): Active
- Activity (NCI-H446 [15]): Active
- inhibition (NCI-H69 [16]): Active
- inhibition (NCI-H69 [17]): Active
- inhibition (H69AR [18]): Active
- inhibition (H69AR [19]): Active
- Activity (NCI-H69 [20]): Active
- Activity (H69AR [21]): Active
- inhibition in vivo at 1.5 mg/kg (NCI-H446 [22]): 73.7%
- Activity (Mus musculus): Active
- IC50 (NCI-H446 [23]): 0.5 nM
- IC50 (NCI-H446 [24]): 0.49 nM
- Ratio IC50 [25]: 0.63
- Activity (NCI-H446 [26]): 0.15 g
- inhibition in vivo at 3 mg/kg (NCI-H446 [27]): 84.5%

— ChEMBL document CHEMBL5108002, “Design, synthesis, and biological evaluation of novel 7-substituted 10,11-methylenedioxy-camptothecin derivatives against drug-resistant small-cell lung cancer in vitro and in vivo” (Eur J Med Chem, 2022)
